Measurements published in BigSolDB 2.1.

COC(=O)[C@@H](N)CC(C)C.Cl
solubility (mole fraction)
Details | 283.15 K | 288.15 K | 293.15 K | 298.15 K | 303.15 K | 308.15 K | 313.15 K | 318.15 K | 323.15 K | 328.15 K
in 1,4-dioxane | – | 0.0539 | 0.0579 | 0.0621 | 0.0715 | 0.0799 | 0.0918 | 0.11 | 0.127 | 0.158
in 2-butanone | 0.00114 | 0.00125 | 0.00141 | 0.00158 | 0.00186 | 0.00238 | 0.00297 | 0.00388 | 0.00524 | –
in acetone | 0.00343 | 0.00389 | 0.00451 | 0.00562 | 0.00661 | 0.00806 | 0.01 | 0.0129 | 0.0172 | –
in acetonitrile | 0.00109 | 0.00154 | 0.00205 | 0.00313 | 0.00401 | 0.0051 | 0.00776 | 0.011 | 0.0162 | –
in dimethyl carbonate | 0.000287 | 0.000319 | 0.00038 | 0.000478 | 0.000629 | 0.000924 | 0.00127 | 0.00167 | 0.00213 | –
in ethyl acetate | 0.000226 | 0.000237 | 0.000277 | 0.000342 | 0.000421 | 0.000593 | 0.000729 | 0.000892 | 0.00124 | –
in isopropyl acetate | 0.000136 | 0.000152 | 0.000178 | 0.000219 | 0.000246 | 0.00029 | 0.000358 | 0.000429 | 0.000561 | –
in methyl acetate | 0.000388 | 0.000472 | 0.000629 | 0.000834 | 0.00105 | 0.00138 | 0.0019 | 0.00244 | 0.00347 | –
in n-butanol | 0.0885 | 0.0916 | 0.0983 | 0.109 | 0.123 | 0.139 | 0.155 | 0.171 | 0.196 | –
in n-hexane | 0.000296 | 0.000331 | 0.000371 | 0.000433 | 0.000505 | 0.00063 | 0.000782 | 0.000983 | 0.0012 | –
in n-pentanol | 0.0571 | 0.062 | 0.0696 | 0.0787 | 0.0917 | 0.104 | 0.121 | 0.137 | 0.156 | –
in n-propyl acetate | 0.00123 | 0.00129 | 0.00145 | 0.00189 | 0.00234 | 0.00292 | 0.0036 | 0.00455 | 0.00541 | –
